Test results as given in article PMC11748363, “Antimicrobial and Antiproliferative Properties of 2‐Phenyl‐N‐(Pyridin‐2‐yl)acetamides” (Chemical Biology & Drug Design, 2025).
Converted amounts (≈) assume the structure as drawn. Where two headings read alike, the source gives them in different places.

Columns and labels:
[1] = tested on: Candida albicans CCM 8320, ATCC 24433; assay: Antifungal microdilution broth MIC, CA
[2] = tested on: Staphylococcus epidermidis CCM 4418, ATCC 12228; assay: Antibacterial microdilution broth MIC, SE; format: cell-based
[3] = tested on: Escherichia coli CCM 3954, ATCC 25922; assay: Antibacterial microdilution broth MIC, EC; format: cell-based
[4] = tested on: Trichophyton interdigitale CCM 8377, ATCC 9533; assay: Antifungal microdilution broth MIC, TI; conditions: Trichophyton interdigitale
[5] = tested on: Mycolicibacterium aurum DSM 43999; assay: Antimycobacterial microdilution broth MIC (resazurin), M. aurum; format: cell-based; conditions: DSM43999, read-out: MIC M. aurum
[6] = tested on: Aspergillus fumigatus ATCC 204305; assay: Antifungal microdilution broth MIC, AF
[7] = tested on: Aspergillus flavus CCM 8363; assay: Antifungal microdilution broth MIC, AFla
[8] = tested on: Enterococcus faecalis CCM 4224, ATCC 29212; assay: Antibacterial microdilution broth MIC, EF; format: cell-based
[9] = tested on: Lichtheimia corymbifera CCM 8077; assay: Antifungal microdilution broth MIC, LC
[10] = tested on: Pseudomonas aeruginosa CCM 3955, ATCC 27853; assay: Antibacterial microdilution broth MIC, PA; format: cell-based
[11] = tested on: Candida parapsilosis CCM 8260, ATCC 22019; assay: Antifungal microdilution broth MIC, CP; conditions: Lodderomyces parapsilosis
[12] = tested on: Acinetobacter baumannii DSM 30007, ATCC 19606; assay: Antibacterial microdilution broth MIC, ACI; format: cell-based
[13] = tested on: Staphylococcus aureus CCM 4223, ATCC 29213; assay: Antibacterial microdilution broth MIC, SA; format: cell-based; conditions: Staphylococcus aureus
[14] = tested on: HepG2 cell line; assay: Cytotoxicity CellTiter 96, HepG2; format: cell-based, human; conditions: Homo sapiens, HepG2, 24 h, 24 h incubation; ^c compound precipitated in the testing medium; ^d over the limit of tested concentrations
[15] = tested on: Klebsiella pneumoniae CCM 4415, ATCC 10031; assay: Antibacterial microdilution broth MIC, KP
[16] = tested on: Mycolicibacterium smegmatis DSM 43465; assay: Antimycobacterial microdilution broth MIC (resazurin), M. smegmatis; format: cell-based; conditions: DSM43465, read-out: MIC M. smegmatis
[17] = tested on: Candida tropicalis CCM 8264, ATCC 750; assay: Antifungal microdilution broth MIC, CT
[18] = tested on: Candida krusei CCM 8271, ATCC 6258; assay: Antifungal microdilution broth MIC, CK; conditions: Pichia kudriavzevii
[19] = tested on: Staphylococcus aureus subsp. aureus CCM 4750, ATCC 43300 (MRSA); assay: Antibacterial microdilution broth MIC, MRSA; format: cell-based; conditions: Staphylococcus aureus
[20] = tested on: Mycobacterium tuberculosis H37Ra; assay: Antimycobacterial microdilution broth MIC (resazurin), Mtb H37Ra; format: cell-based; conditions: for MIC: Mycobacterium tuberculosis, H37RA, read-out: MIC Mtb H37Ra
[21] = ATCC204305, 24 h, read-out: MIC AF 24h
[22] = ATCC204305, 48 h, read-out: MIC AF 48h
[23] = CCM8363, 24 h, read-out: MIC AFla 24h
[24] = CCM8363, 48 h, read-out: MIC AFla 48h
[25] = CCM8077, 24 h, read-out: MIC LC 24h
[26] = CCM8077, 48 h, read-out: MIC LC 48h

Compound	MIC ([1]; 24 h, read-out: MIC CA 24h) [µM]	MIC ([1]; 48 h, read-out: MIC CA 48h) [µM]	MIC ([2]; 24 h, read-out: MIC SE 24h) [µM]	MIC ([2]; 48 h, read-out: MIC SE 48h) [µM]	MIC ([3]; 24 h, read-out: MIC EC 24h) [µM]	MIC ([3]; 48 h, read-out: MIC EC 48h) [µM]	MIC ([4]; 72 h, read-out: MIC TI 72h) [µM]	MIC ([4]; 120 h, read-out: MIC TI 120h) [µM]	MIC [5] [µg/mL]	MIC [6, 21] [µM]	MIC [6, 22] [µM]	MIC [7, 23] [µM]	MIC [7, 24] [µM]	MIC ([8]; 24 h, read-out: MIC EF 24h) [µM]	MIC ([8]; 48 h, read-out: MIC EF 48h) [µM]	MIC [9, 25] [µM]	MIC [9, 26] [µM]	MIC ([10]; 24 h, read-out: MIC PA 24h) [µM]	MIC ([10]; 48 h, read-out: MIC PA 48h) [µM]	MIC ([11]; 24 h, read-out: MIC CP 24h) [µM]	further results
O=C(Cc1ccccc1)Nc1cccc(Cl)n1 [Compound 3]	> 500	> 500	> 500	> 500	> 500	> 500	125 (≈ 30.8 µg/mL)	250 (≈ 61.7 µg/mL)	62.5 (≈ 253 µM)	> 500	> 500	> 500	> 500	> 500	> 500	> 500	> 500	> 500	> 500	500 (≈ 123 µg/mL)	MIC ([11]; 48 h, read-out: MIC CP 48h): > 500 µM; MIC ([12]; 24 h, read-out: MIC ACI 24h): > 500 µM; MIC ([12]; 48 h, read-out: MIC ACI 48h): > 500 µM; MIC ([13]; 24 h, read-out: MIC SA 24h): 500 µM (≈ 123 µg/mL); MIC ([13]; 48 h, read-out: MIC SA 48h): 500 µM (≈ 123 µg/mL); IC50 [14]: 433 µM; MIC KP 24h [15]: > 500 µM; MIC KP 48h [15]: > 500 µM; MIC [16]: 15.6 µg/mL (≈ 63.3 µM); MIC ([17]; 24 h, read-out: MIC CT 24h): > 500 µM; MIC ([17]; 48 h, read-out: MIC CT 48h): > 500 µM; MIC ([18]; 24 h, read-out: MIC CK 24h): 250 µM (≈ 61.7 µg/mL); MIC ([18]; 48 h, read-out: MIC CK 48h): 500 µM (≈ 123 µg/mL); MIC ([19]; 24 h, read-out: MIC MRSA 24h): > 500 µM; MIC ([19]; 48 h, read-out: MIC MRSA 48h): > 500 µM; MIC ([20]; Calculated from MIC (μg/mL)): 127 µM; MIC [20]: 31.2 µg/mL; SI (selectivity index) ([20]; SI = HepG2 IC50 (μM)/MIC MtbH37Ra (μM), calculated for compounds with MIC ≤ 31.25 μg/mL): 3.42
COc1ccccc1CC(=O)Nc1ccccn1 [Compound 4]	> 500	> 500	> 500	> 500	> 500	> 500	> 500	> 500	250 (≈ 1030 µM)	> 500	> 500	> 500	> 500	> 500	> 500	> 500	> 500	> 500	> 500	> 500	MIC ([11]; 48 h, read-out: MIC CP 48h): > 500 µM; MIC ([12]; 24 h, read-out: MIC ACI 24h): > 500 µM; MIC ([12]; 48 h, read-out: MIC ACI 48h): > 500 µM; MIC ([13]; 24 h, read-out: MIC SA 24h): > 500 µM; MIC ([13]; 48 h, read-out: MIC SA 48h): > 500 µM; IC50 [14]: > 1000 µM; MIC KP 24h [15]: > 500 µM; MIC KP 48h [15]: > 500 µM; MIC [16]: > 500 µg/mL; MIC ([17]; 24 h, read-out: MIC CT 24h): > 500 µM; MIC ([17]; 48 h, read-out: MIC CT 48h): > 500 µM; MIC ([18]; 24 h, read-out: MIC CK 24h): > 500 µM; MIC ([18]; 48 h, read-out: MIC CK 48h): > 500 µM; MIC ([19]; 24 h, read-out: MIC MRSA 24h): > 500 µM; MIC ([19]; 48 h, read-out: MIC MRSA 48h): > 500 µM; MIC ([20]; Calculated from MIC (μg/mL)): 516 µM; MIC [20]: 125 µg/mL
